Test system: rat heart tissue
Test: GENECALLING differential gene expression analysis after dosing of serotonin modulating agents
Format: in vivo, Sprague Dawley rats
Method in brief: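 Rats dosed with serotonin modulating agents, controls given sterile water or canola oil; tissue taken 24 h after the last dose. Total RNA converted to cDNA and profiled by GENECALLING differential expression analysis; fragments changed more than ±1.5-fold were selected.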

CCN[C@@H](C)Cc1cccc(C(F)(F)F)c1 [dexfenfluramine]
Effects on Transcription Level: Novel gene fragment, 524 bp, 86% SI to mouse F-box protein FBX6b [AF176526] (CARDIOTOX 1): +1.5 fold
Effects on Transcription Level: Novel gene fragment, 306 bp, 91% SI to mouse low density lipoprotein receptor related protein 4 [AB013874] (CARDIOTOX 2): −1.8 fold
Effects on Transcription Level: Novel gene fragment, 540 bp, 97% SI to mouse skeletal muscle alpha-actin [X03766] (CARDIOTOX 3): +2.3 fold
Effects on Transcription Level: Novel gene fragment, 80 bp (CARDIOTOX 4): −1.6 fold
Effects on Transcription Level: Novel gene fragment, 957 bp, 99% SI to kidney injury associated moleculer HW036 [V80591] (CARDIOTOX 5): −1.6 fold
Effects on Transcription Level: Novel gene fragment, 282 bp, 85% SI to human KIAA1515 protein [AB040948] (CARDIOTOX 6): −1.7 fold
Effects on Transcription Level: Novel gene fragment, 405 bp, 88% SI to human 2-oxoglutarate dehydrogenase [D10523] (CARDIOTOX 7): +1.5 fold
Effects on Transcription Level: UCP2 (CARDIOTOX 8, GenBank AB010743): −1.6 fold
Effects on Transcription Level: Plasma membrane Ca2 + ATPase-isoform 1 (CARDIOTOX 9, GenBank J03753): −1.6 fold
Effects on Transcription Level: Novel gene fragment, 242 bp, 97% SI to mouse HSP86 heat-shock protein [X16857] (CARDIOTOX 10): +1.4 fold
Effects on Transcription Level: Novel gene fragment, 280 bp, 65% SI to human TRF1-interacting, ankyrin-related ADP-ribose polymerase [AF082556] (CARDIOTOX 11): +1.4 fold
Effects on Transcription Level: Novel gene fragment, 348 bp, 88% SI to mouse Sec61 protein complex gamma subunit [U11027] (CARDIOTOX 12): +1.3 fold
Effects on Transcription Level: Novel gene fragment 553 bp, 93% SI to mouse Sid329 [AB024984] (CARDIOTOX 13): +1.4 fold
Effects on Transcription Level: Kruppel-like transcription factor (CARDIOTOX 14, GenBank AB020759): +1.3 fold
Effects on Transcription Level: Ribosomal protein L3 (CARDIOTOX 15, GenBank X62166): +1.4 fold
Effects on Transcription Level: Glucose-regulated protein (GRP) 75 (CARDIOTOX 16, GenBank S78556): +1.4 fold
Effects on Transcription Level: Immunoglobulin heavy chain binding protein (BiP) (CARDIOTOX 17, GenBank M14050): +1.4 fold
Effects on Transcription Level: Membrane-spannining proteoglycan NG2 (CARDIOTOX 18, GenBank X56541): −1.4 fold
Effects on Transcription Level: Novel gene fragment, 1294 bp, 96% SI to mouse Sui 1 (elF) homolog [AF129888] (CARDIOTOX 19): +1.6 fold
Effects on Transcription Level: Novel gene fragment, 723 bp, 85% SI to human translation initiation factor elF3 p40 subunit [U54559] (CARDIOTOX 20): +1.6 fold
Effects on Transcription Level: Novel gene fragment, 1324 bp, 76% SI to human flavoprotein subunit of complex II [D30648] (CARDIOTOX 21): +1.5 fold
Effects on Transcription Level: Novel gene fragment, 852 bp, 81% SI to human vacuolar proton-ATPase subunit M9.2 [Y15286] (CARDIOTOX 22): +1.5 fold
Effects on Transcription Level: Novel gene fragment, 178 bp, 91% SI to mouse myosin light chain-2 isoform MLC-2a [S70785] (CARDIOTOX 23): +1.6 fold
Effects on Transcription Level: Novel gene fragment, 167 bp, 90% SI to mouse Rab20 [X80332] (CARDIOTOX 24): +1.7 fold
Effects on Transcription Level: Novel gene fragment, 1070 bp, 80% SI to human muscle-specific protein [AF249873] (CARDIOTOX 25): +1.5 fold
Effects on Transcription Level: Novel gene fragment, 1143 bp, 82% SI to human sarcoma amplified sequence (SAS) [U01160] (CARDIOTOX 26): +1.7 fold
Effects on Transcription Level: Novel gene fragment, 74 bp,75% SI to human secreted protein [X30160] (from patent database)/[X97578] (from patent database)/potential cytokine) (CARDIOTOX 27): +1.5 fold
Effects on Transcription Level: Novel gene fragment, 408 bp, 90% SI to human CGI-07 protein [AF132941] (CARDIOTOX 28): +1.6 fold
Effects on Transcription Level: Novel gene fragment, 618 bp, 95% SI to rat progression related cDNA, ZNPE-120 3′ end partial sequence [patent database X90805] (CARDIOTOX 29): +1.5 fold
Effects on Transcription Level: Novel gene fragment, 717 bp (CARDIOTOX 30): +1.5 fold
Effects on Transcription Level: Novel gene fragment, 546 bp (CARDIOTOX 31): +1.8 fold
Effects on Transcription Level: Novel gene fragment, 920 bp, 91% SI to human HSPC061 [AF161546] (CARDIOTOX 32): +1.5 fold
Effects on Transcription Level: Novel gene fragment, 203 bp, 92% SI to rabbit sarcoplasmic reticulum glycoprotein [J04480] (CARDIOTOX 33): −1.7 fold
Effects on Transcription Level: Novel gene fragment, 178 bp, 68% SI to mouse IgG receptor (beta-Fc-gamma-RII)[M63159] (CARDIOTOX 34): +1.6 fold
Effects on Transcription Level: Ribosomal protein L6 (CARDIOTOX 35, GenBank X87107): +1.6 fold
Effects on Transcription Level: CAP2 protein (adenylyl cyclase-associated protein 2) (CARDIOTOX 36, GenBank U31935): +2.0 fold
Effects on Transcription Level: Alpha-platelet-derived growth factor receptor (CARDIOTOX 37, GenBank M63837): +1.6 fold
Effects on Transcription Level: Rab GD1 alpha protein (CARDIOTOX 38, GenBank X74402): −1.6 fold
Effects on Transcription Level: PKC-zeta-interacting protein (CARDIOTOX 39, GenBank Y08355): +1.6 fold
Effects on Transcription Level: ERK or MAP kinase (CARDIOTOX 40, GenBank X65198): +1.5 fold
Effects on Transcription Level: Peroxisomal multifunctional enzyme type II (CARDIOTOX 41, GenBank U37486): +1.5 fold
Effects on Transcription Level: HBP23 (heme-binding protein 23 kDa) (CARDIOTOX 42, GenBank D30035): +1.7 fold
Effects on Transcription Level: Caveolae-associated protein (CARDIOTOX 43, GenBank U90725): +3.0 fold
Effects on Transcription Level: Prenylated rab acceptor 1 (PRA1) (CARDIOTOX 44, GenBank AF025506): +1.5 fold
Effects on Transcription Level: Novel gene fragment, 337 bp, 88% SI to rabbit cardiac ryanodine receptor (RyR-2)[U50465] (CARDIOTOX 45): −1.7 fold
Effects on Transcription Level: Novel gene fragment, 81 bp, 85% SI to human titin [X90568] (CARDIOTOX 46): −2.2 fold
Effects on Transcription Level: Novel gene fragment, 428 bp, 86% SI to human titin [X90568] (CARDIOTOX 47): −2.0 fold
Effects on Transcription Level: Novel gene fragment, 374 bp, 88% SI to human titin [X90568] (CARDIOTOX 48): −2.3 fold
Effects on Transcription Level: Novel gene fragment, 428 bp, 85% SI to human titin [90568] (CARDIOTOX 49): −2.2 fold
Effects on Transcription Level: Novel gene fragment, 1216 bp, 93% SI to mouse mircotubule-associated protein (MAP) 1B protein [AF115776] (CARDIOTOX 50): −1.9 fold
Effects on Transcription Level: Novel gene fragment, 1115 bp, 83% SI to human KIAA0549 protein [AB011121] (CARDIOTOX 51): −2.0 fold
Effects on Transcription Level: Novel gene fragment, 153 bp (CARDIOTOX 52): −1.7 fold
Effects on Transcription Level: Novel gene fragment, 89 bp, 93% SI to human putative glialblastoma cell differentiation-related protein (GBDR1) [AF068195] (CARDIOTOX 53): −1.6 fold
Effects on Transcription Level: Rho-associated kinase beta (CARDIOTOX 54, GenBank U61266): −1.9 fold
Effects on Transcription Level: Adenylate kinase 3 (CARDIOTOX 55, GenBank D13062): +1.5 fold
Effects on Transcription Level: Amyloid beta-peptide binding protein (CARDIOTOX 56, GenBank AF049878): +1.5 fold
Effects on Transcription Level: Mitochondrial adenine nuleotide translocator (CARDIOTOX 57, GenBank D12771): +1.5 fold
Effects on Transcription Level: Novel gene fragment, 710 bp, 94% SI to mouse chromatin structural protein homolog Supt5 hp (Supt5 h)[U88539] (CARDIOTOX 58): +3.8 fold
Effects on Transcription Level: Novel gene fragment, 186 bp, 66% SI to human N-acetylglucosaminyltransferase 1 (GlcNAc-TI)[M55621] (CARDIOTOX 60): −1.7 fold
Effects on Transcription Level: Novel gene fragment, 238 bp, 95% SI to mouse MAP kinase-activated protein kinase 2 [X76850] (CARDIOTOX 61): −2.1 fold
Effects on Transcription Level: Novel gene fragment, 173 bp, 70% SI to G protein-coupled receptor kinase GRK4 [X97568] (CARDIOTOX 62): −6.1 fold
Effects on Transcription Level: Novel gene fragment, 133 bp, 77% SI to human apoptosis related protein hSARP3 [patent database: V19114] (CARDIOTOX 63): −3.4 fold
Effects on Transcription Level: Novel gene fragment, 477 bp, 98% SI to peroxisomal phytanoyl-CoA hydroxylase (PHYH) [AF121345] (CARDIOTOX 64): +5.0 fold
Effects on Transcription Level: Novel gene fragment, 413 bp, 95% SI to mouse dihydrolipoamide dehydrogenase (Dld) [U73445] (CARDIOTOX 65): +1.9 fold
Effects on Transcription Level: Novel gene fragment, 726 bp, 76% SI to human succinate dehydrogenase flavoprotein subunit (SDH) [L21936] (CARDIOTOX 66): −4.1 fold
Effects on Transcription Level: Novel gene fragment, 440 bp, 92% SI to mouse cytochrome c oxidase Vllc [X52940] (CARDIOTOX 67): +3.6 fold
Effects on Transcription Level: Novel gene fragment, 276 bp, 80% SI to human titin [X90568] (CARDIOTOX 68): −11.9 fold
Effects on Transcription Level: Novel gene fragment, 149 bp, 70% SI to human titin [X90568] (CARDIOTOX 69): −5.5 fold
Effects on Transcription Level: Novel gene fragment, 467 bp, 94% SI to mouse gelsolin [J04953] (CARDIOTOX 70): −3.2 fold
Effects on Transcription Level: Novel gene fragment, 535 bp, 90% SI to mouse slow/cardiac troponin C [M29793] (CARDIOTOX 71): −2.0 fold

Source: patent publication US20040005537A1, “Method of identifying toxic agents using differential gene expression” (priority 2000, published 2004)
